According to patent US20060198882A1, “Stable liposomes or micelles comprising a sphinolipid and a peg-lipopolymer” (priority 2003, published 2006):

Test system: C-26 colon carcinoma cells
Assay: Cell uptake and metabolism of radiolabelled ceramide assemblies
Assay type: cell-based, human
Method: C-26 colon carcinoma cells were seeded into six-well plates at density of 2.5×10^5 in 2 ml of complete RPMI-1640 medium supplemented with 10% FCS, antibiotics, and glutamine. The cells were allowed to grow for 48 hr and replaced with 1 ml of complete serum containing medium. […] The radioactive doses of ceramides and lipid (dpm/μmole) are described in Table 2C. After these predefined time periods cells were tripsinized and washed twice with PBS. Cell lipids, lipids of the medium and lipids of the wash fraction were extracted by the Bligh and Dyer procedure [E. G. Bligh and W. J. Dyer, Can. J. Biochem. Physiol. 37:[…] (1959)]. Briefly, chloroform, methanol, and DDW were added to the cells at a final ratio of 1:2:1 (by vol.), and incubated for 10 min at 45° C. Then the mixtures were centrifuged at […] for 5 min. The supernatants containing the lipids were taken and chloroform and DDW were added in order to reach the final volume ratio of chloroform: methanol:DDW of 1:1:1. Two phases were formed and well separated after centrifugation. The water/methanol rich upper phase was removed while the chloroform-rich lower phase which contains >99% of the lipids was washed once with synthetic upper phase composed of chloroform:methanol:DDW (6:94:96, by volume). The lipid-containing lower phase was dried under nitrogen stream and redissolved in chloroform: methanol (2:1, by vol.) ready for analysis.
The lipid mixture was applied to silica gel TLC plates and developed in the solvent system of chloroform:methanol: DDW (84:16:1,5, by vol.) and detected by Copper sulfate reagent. The TLC plates were photographed by the Fluor-S-Multyimiger (Bio-Rad, Hercules, Calif.). Migration of lipids from cells extracts, medium, and wash fractions was visualized in comparison to a different well established commercial markers. The retention factor RF (defined as the distance traveled by the compound divided by the distance traveled by the solvent) of various molecules are as follows: SPM-0.04, EPC or HSPC-0.1, DOTAP: 0.24, GalCer: 0.29-0.38, GluCer: 0.4, C6 Cer: 0.68, and C16 Cer: […].
The TLC plates were then subjected overnight to imaging plate and the radioactivity was measured by Bio-Imaging analyzer (FUJI BAS 1000, Japan) then the radioactive bands were scraped from the TLC plate, placed into the test tube containing scintillation medium Opti-Fluor (Packard Bioscience, Groningen, Netherlands) and the radioactivity was counted by a β-counter.
The uptake and metabolism of radiolabelled liposomal or free C6Cer were studied in C-26 colon carcinoma cells. Cells were incubated with either free ^14C6Cer (in ethanol) or with liposomal C6Cer. Total lipids were extracted and the level of uptake and metabolites were determined from cells and growth medium as described in Materials and Methods.

CCCCCCCCCCCCC/C=C/[C@@H](O)[C@H](CO)NC(=O)CCCCC [C6Cer, N-hexanoyl-D-erythro-sphingosine]
Cell uptake (%) of ^14C6Cer (2 hr): 39.9% | Cell uptake (nmole) of ^14C6Cer (2 hr, 20 μM ceramide): 13.7 nmol | Cell uptake (%) of ^14C6Cer (24 hr): 93.7% | Cell uptake (nmole) of ^14C6Cer (24 hr): 34.5 nmol | Cell uptake (%) of ^14C6Cer (72 hr): 72% | Cell uptake (nmole) of ^14C6Cer (72 hr): 24.5 nmol
